Consider 4 molecules from article PMC12007624 (Open Forum Infectious Diseases, 2025).

A short description of data set [1]: Pharmacokinetics of immunosuppressants before and 2 weeks after ART switch. As to conditions: for AUC % Change / Cmax % Change / Cmin % Change: after vs before ART switch, P > .05. It is filed as in vivo, human.
Data set [2] in a line: Pharmacokinetics of RAL before and DTG after switch to DTG-based ART. The data set is classed as in vivo, human. As to conditions: SOT recipients receiving immunosuppressants.
Data set [3] relates to renal organic cation transporter OCT2. Conditions: renal tubules; interferes with creatinine clearance; cited from earlier work.
Data set [4] has as its system multidrug and toxin extrusion transporter MATE1. Conditions: renal tubules; cited from earlier work.

For the molecule `C=CC[C@@H]1/C=C(\C)C[C@H](C)C[C@H](OC)[C@H]2O[C@@](O)(C(=O)C(=O)N3CCCC[C@H]3C(=O)O[C@H](/C(C)=C/[C@@H]3CC[C@@H](O)[C@H](OC)C3)[C@H](C)[C@@H](O)CC1=O)[C@H](C)C[C@@H]2OC` [Tacrolimus, tacrolimus], the Cmin in data set [1] (After ART switch (2 weeks on DTG-based ART), blood, median (IQR)) is reported as 4.4 (4.3, 8.5) ng/mL; in data set [1] (Before ART switch (RAL-based ART), blood, median (IQR)), 6.2 (5.2, 8.9) ng/mL. The Tmax in data set [1] (After ART switch (2 weeks on DTG-based ART), median (IQR)) is on record as 2 (1, 2) h. Moreover, the “AUC % Change” value in data set [1] is given as −9%. Moreover, the entries for the “Cmax % Change” value in data set [1] and in data set [1] (listed as tacrolimus) were 14% and “+14%”, respectively. Moreover, in data set [1], the “Cmin % Change” value is −29%.
Turning to `Cc1nnc(C(=O)NC(C)(C)c2nc(C(=O)NCc3ccc(F)cc3)c(O)c(=O)n2C)o1` [RAL, Raltegravir], the “plasma levels versus normal range” value in data set [2] is listed as “in the normal range”.
As for `C[C@@H]1CCO[C@H]2Cn3cc(C(=O)NCc4ccc(F)cc4F)c(=O)c(O)c3C(=O)N12` [DTG, Dolutegravir], the “effect on OCT2” value in data set [3] was “inhibits”. Further, the “effect on MATE1” value in data set [4] is on record as “potentially”. Moreover, the “plasma levels versus normal range” value in data set [2] is listed as “in the normal range”.
For `COc1c(C)c2c(c(O)c1C/C=C(\C)CCC(=O)O)C(=O)OC2` [Mycophenolic Acid, mycophenolic acid], the Cmin in data set [1] (After ART switch (2 weeks on DTG-based ART), plasma, median (IQR)) was 2.9 (1.7, 4) µg/mL. In data set [1] (Before ART switch (RAL-based ART), plasma, median (IQR)), the Cmin is on record as 1.9 (1.5, 2.5) µg/mL. In data set [1], the “AUC % Change” value is 16%, the “Cmax % Change” value is 63% and the “Cmin % Change” value amounted to 53%. For the same molecule, in data set [1] (listed as mycophenolic acid), the “AUC % Change” value is listed as “+16%”, the “Cmax % Change” value is recorded as “+63%” and the “Cmin % Change” value is recorded as “+53%”.
